{"source": "PubChem BioAssay (NCI)", "assay_in_all_cases": "inhibition of tumour cell growth, NCI panel, 48 h", "key": {"[1]": {"tested_on": "MDA-MB-435"}, "[2]": {"tested_on": "K-562 leukemia"}, "[3]": {"tested_on": "MALME-3M melanoma"}, "[4]": {"tested_on": "SF-268 CNS"}, "[5]": {"tested_on": "HCC-2998 colon"}, "[6]": {"tested_on": "SK-MEL-2 melanoma"}, "[7]": {"tested_on": "HL-60(TB) leukemia"}, "[8]": {"tested_on": "A549 NSCLC"}, "[9]": {"tested_on": "OVCAR-8 ovarian"}, "[10]": {"tested_on": "PC-3 prostate"}, "[11]": {"tested_on": "SF-295 CNS"}, "[12]": {"tested_on": "NCI-H226 lung"}, "[13]": {"tested_on": "A498 renal"}, "[14]": {"tested_on": "SNB-75 CNS"}, "[15]": {"tested_on": "RPMI-8226 leukemia"}, "[16]": {"tested_on": "DU-145 prostate"}, "[17]": {"tested_on": "HOP-92 NSCLC"}, "[18]": {"tested_on": "NCI-H522 lung"}, "[19]": {"tested_on": "MOLT-4 leukemia"}, "[20]": {"tested_on": "HCT-116 colon"}}, "note": "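Growth conditions: 96-well plates. Treatment: test compound, 48 hours, 5 concentrations. Analysis: linear interpolation between bracketing concentrations; unreached endpoints set to highest concentration. At the TGI there is no net growth.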", "data": [{"smiles": "Cc1nc2c(o1)C(=O)c1ccccc1C2=Nc1ccc(N2CCOCC2)cc1", "values": [{"measurement": "TGI", "setting": "[1]", "value": 3.58, "unit": "µM"}, {"measurement": "TGI", "setting": "[2]", "value": 11.6, "unit": "µM"}, {"measurement": "TGI", "setting": "[3]", "value": 3.25, "unit": "µM"}, {"measurement": "TGI", "setting": "[4]", "value": 23.6, "unit": "µM"}, {"measurement": "TGI", "setting": "[5]", "value": 99.8, "unit": "µM"}, {"measurement": "TGI", "setting": "[6]", "value": 9.63, "unit": "µM"}, {"measurement": "TGI", "setting": "[7]", "value": 7.24, "unit": "µM"}, {"measurement": "TGI", "setting": "[8]", "value": 17.8, "unit": "µM"}, {"measurement": "TGI", "setting": "[9]", "value": "> 27.7", "unit": "µM"}, {"measurement": "TGI", "setting": "[10]", "value": 7.37, "unit": "µM"}, {"measurement": "TGI", "setting": "[11]", "value": 5.98, "unit": "µM"}, {"measurement": "TGI", "setting": "[12]", "value": 42.1, "unit": "µM"}, {"measurement": "TGI", "setting": "[13]", "value": 35.4, "unit": "µM"}, {"measurement": "TGI", "setting": "[14]", "value": 5.03, "unit": "µM"}, {"measurement": "TGI", "setting": "[15]", "value": 25.5, "unit": "µM"}, {"measurement": "TGI", "setting": "[16]", "value": 7.81, "unit": "µM"}, {"measurement": "TGI", "setting": "[17]", "value": "> 100", "unit": "µM"}, {"measurement": "TGI", "setting": "[18]", "value": 7, "unit": "µM"}, {"measurement": "TGI", "setting": "[19]", "value": 31.5, "unit": "µM"}, {"measurement": "TGI", "setting": "[20]", "value": 13.6, "unit": "µM"}]}, {"smiles": "O=C(Nc1ccc(Cl)c(Cl)c1)N1N=C2c3ccccc3CCC2C1c1ccc(Cl)cc1", "note": "(stereo not given)", "values": [{"measurement": "TGI", "setting": "[1]", "value": "> 100", "unit": "µM"}, {"measurement": "TGI", "setting": "[2]", "value": "> 100", "unit": "µM"}, {"measurement": "TGI", "setting": "[3]", "value": "> 100", "unit": "µM"}, {"measurement": "TGI", "setting": "[4]", "value": "> 100", "unit": "µM"}, {"measurement": "TGI", "setting": "[5]", "value": "> 100", "unit": "µM"}, {"measurement": "TGI", "setting": "[6]", "value": "> 100", "unit": "µM"}, {"measurement": "TGI", "setting": "[7]", "value": "> 100", "unit": "µM"}, {"measurement": "TGI", "setting": "[8]", "value": "> 100", "unit": "µM"}, {"measurement": "TGI", "setting": "[9]", "value": "> 100", "unit": "µM"}, {"measurement": "TGI", "setting": "[10]", "value": "> 100", "unit": "µM"}, {"measurement": "TGI", "setting": "[11]", "value": "> 100", "unit": "µM"}, {"measurement": "TGI", "setting": "[12]", "value": "> 100", "unit": "µM"}, {"measurement": "TGI", "setting": "[13]", "value": "> 100", "unit": "µM"}, {"measurement": "TGI", "setting": "[14]", "value": "> 100", "unit": "µM"}, {"measurement": "TGI", "setting": "[15]", "value": "> 100", "unit": "µM"}, {"measurement": "TGI", "setting": "[16]", "value": "> 100", "unit": "µM"}, {"measurement": "TGI", "setting": "[17]", "value": "> 100", "unit": "µM"}, {"measurement": "TGI", "setting": "[18]", "value": "> 100", "unit": "µM"}, {"measurement": "TGI", "setting": "[19]", "value": "> 100", "unit": "µM"}, {"measurement": "TGI", "setting": "[20]", "value": "> 100", "unit": "µM"}]}, {"smiles": "Cn1c2c3ccc(Cl)cc3nc-2c(Cl)c2ccccc21", "values": [{"measurement": "TGI", "setting": "[1]", "value": 38.2, "unit": "µM"}, {"measurement": "TGI", "setting": "[2]", "value": "> 100", "unit": "µM"}, {"measurement": "TGI", "setting": "[3]", "value": 34, "unit": "µM"}, {"measurement": "TGI", "setting": "[4]", "value": 36.3, "unit": "µM"}, {"measurement": "TGI", "setting": "[5]", "value": 20.5, "unit": "µM"}, {"measurement": "TGI", "setting": "[6]", "value": 48.2, "unit": "µM"}, {"measurement": "TGI", "setting": "[7]", "value": "> 100", "unit": "µM"}, {"measurement": "TGI", "setting": "[8]", "value": "> 100", "unit": "µM"}, {"measurement": "TGI", "setting": "[9]", "value": "> 100", "unit": "µM"}, {"measurement": "TGI", "setting": "[10]", "value": 38.1, "unit": "µM"}, {"measurement": "TGI", "setting": "[11]", "value": 36.6, "unit": "µM"}, {"measurement": "TGI", "setting": "[12]", "value": 62.5, "unit": "µM"}, {"measurement": "TGI", "setting": "[13]", "value": 45.1, "unit": "µM"}, {"measurement": "TGI", "setting": "[14]", "value": 55.1, "unit": "µM"}, {"measurement": "TGI", "setting": "[15]", "value": "> 100", "unit": "µM"}, {"measurement": "TGI", "setting": "[16]", "value": 33.4, "unit": "µM"}, {"measurement": "TGI", "setting": "[17]", "value": 37.1, "unit": "µM"}, {"measurement": "TGI", "setting": "[18]", "value": 33.6, "unit": "µM"}, {"measurement": "TGI", "setting": "[19]", "value": "> 100", "unit": "µM"}, {"measurement": "TGI", "setting": "[20]", "value": 4.99, "unit": "µM"}]}]}
